Publication PMC4490784, “Compensatory induction of MYC expression by sustained CDK9 inhibition via a BRD4-dependent mechanism” (eLife, 2015)
pIC50: −log10 of the molar value.

What was measured:
[1] = biological target: T1, ABL1(F317L)-phosphorylated (Homo sapiens, UniProt P00519, F317L); test: KINOMEscan binding assay; conditions: 1 µM i-CDK9; read-out: % Retention on Solid Support
T1 construct: purchased DiscoveRx KINOMEscan
Experimental: (§1) As there are no commercial or in-house kinase assays available for CDK3, CDK5, CDK11 and CDK13, the inhibitory abilities of i-CDK9 toward these CDKs were thus evaluated in the DiscoveRx KINOMEscan assay, which is based on a proprietary active site-directed competition-binding platform ([Fabian et al., 2005]).
(§2) The inhibitory activity of i-CDK9 for CDK1-CycB (Upstate/Millipore), CDK2-CycA (Invitrogen), CDK4-CycD1 (Novartis), CDK7-CycH-MAT1 (Invitrogen), and CDK9-CycT1 (Invitrogen) was assessed in the AlphaScreen (PerkinElmer, Inc)-based kinase assay developed at Novartis. Briefly, each CDK–cyclin pair was pre-incubated with i-CDK9 for 15 min, followed by addition of kinase substrates (ELK for CDK1 and CDK2, RB for CDK4, and CDK7tide for CDK7 and CDK9). The mixture was incubated at room temperature for additional 4–5 hr. The reaction was stopped and read on Envision (PerkinElmer, Inc). Selectivity against a large panel of over 400 kinases was evaluated using the KINOMEscan platform (DiscoveRx, CA) employing a proprietary active site-directed competition binding assay ([Fabian et al., 2005]). The assay was conducted at two different concentrations of i-CDK9 (1 and 10 µM) by DiscoveRx.

ABL1-phosphorylated = biological target: T2, ABL1-phosphorylated (Homo sapiens, UniProt P00519); test: KINOMEscan binding assay; conditions: 1 µM i-CDK9; read-out: % Retention on Solid Support
T2 construct: purchased DiscoveRx KINOMEscan
Experimental: as §1, §2

ASK2 = biological target: T3, ASK2 (Homo sapiens, UniProt O95382); test: KINOMEscan binding assay; conditions: read-out: % Retention on Solid Support
T3 construct: purchased DiscoveRx KINOMEscan
Experimental: as §1, §2

CAMK2B = biological target: T4, CAMK2B (Homo sapiens, UniProt Q13554); test: KINOMEscan binding assay; conditions: read-out: % Retention on Solid Support
T4 construct: purchased DiscoveRx KINOMEscan
T4 sequence (Q13554 whole entry): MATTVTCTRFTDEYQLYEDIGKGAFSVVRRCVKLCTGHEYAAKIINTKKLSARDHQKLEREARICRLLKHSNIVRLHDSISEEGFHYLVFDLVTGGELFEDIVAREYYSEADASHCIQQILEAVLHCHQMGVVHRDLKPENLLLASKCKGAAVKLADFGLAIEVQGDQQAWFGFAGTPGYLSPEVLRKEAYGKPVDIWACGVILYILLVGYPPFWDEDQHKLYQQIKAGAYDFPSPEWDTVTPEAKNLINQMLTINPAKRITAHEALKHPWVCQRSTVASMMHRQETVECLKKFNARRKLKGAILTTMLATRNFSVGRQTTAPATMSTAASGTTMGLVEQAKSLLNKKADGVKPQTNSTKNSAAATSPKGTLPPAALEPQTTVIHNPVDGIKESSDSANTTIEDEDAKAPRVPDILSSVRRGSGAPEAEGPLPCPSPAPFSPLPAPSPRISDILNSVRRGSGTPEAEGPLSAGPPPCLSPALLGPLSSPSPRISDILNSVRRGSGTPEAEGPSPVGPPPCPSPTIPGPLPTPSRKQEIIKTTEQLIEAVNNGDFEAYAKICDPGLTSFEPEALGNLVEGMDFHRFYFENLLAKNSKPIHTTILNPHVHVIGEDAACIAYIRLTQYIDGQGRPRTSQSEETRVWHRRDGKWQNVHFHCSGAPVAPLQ
Experimental: as §1, §2

CDKL3 = biological target: T5, CDKL3 (Homo sapiens, UniProt Q8IVW4); test: KINOMEscan binding assay; conditions: read-out: % Retention on Solid Support
T5 construct: purchased DiscoveRx KINOMEscan
T5 sequence (Q8IVW4 whole entry): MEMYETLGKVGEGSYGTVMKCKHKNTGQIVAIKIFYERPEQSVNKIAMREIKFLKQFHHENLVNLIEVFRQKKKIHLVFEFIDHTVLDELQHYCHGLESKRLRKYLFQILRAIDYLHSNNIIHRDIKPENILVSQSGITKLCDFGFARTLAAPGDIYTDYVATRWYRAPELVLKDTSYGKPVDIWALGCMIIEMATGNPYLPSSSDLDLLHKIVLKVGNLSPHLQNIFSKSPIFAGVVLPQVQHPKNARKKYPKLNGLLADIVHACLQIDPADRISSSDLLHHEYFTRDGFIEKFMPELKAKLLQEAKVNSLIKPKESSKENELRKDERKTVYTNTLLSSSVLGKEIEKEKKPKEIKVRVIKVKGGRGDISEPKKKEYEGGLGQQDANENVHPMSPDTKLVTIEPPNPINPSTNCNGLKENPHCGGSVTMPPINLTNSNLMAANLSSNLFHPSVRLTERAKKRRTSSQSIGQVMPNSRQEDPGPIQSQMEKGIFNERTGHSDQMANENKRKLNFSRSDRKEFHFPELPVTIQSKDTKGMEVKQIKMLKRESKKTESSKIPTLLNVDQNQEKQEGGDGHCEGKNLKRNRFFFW
Experimental: as §1, §2

EPHB1 = biological target: T6, EPHB1 (Homo sapiens, UniProt P54762); test: KINOMEscan binding assay; conditions: read-out: % Retention on Solid Support
T6 construct: purchased DiscoveRx KINOMEscan
T6 sequence (P54762 18-984): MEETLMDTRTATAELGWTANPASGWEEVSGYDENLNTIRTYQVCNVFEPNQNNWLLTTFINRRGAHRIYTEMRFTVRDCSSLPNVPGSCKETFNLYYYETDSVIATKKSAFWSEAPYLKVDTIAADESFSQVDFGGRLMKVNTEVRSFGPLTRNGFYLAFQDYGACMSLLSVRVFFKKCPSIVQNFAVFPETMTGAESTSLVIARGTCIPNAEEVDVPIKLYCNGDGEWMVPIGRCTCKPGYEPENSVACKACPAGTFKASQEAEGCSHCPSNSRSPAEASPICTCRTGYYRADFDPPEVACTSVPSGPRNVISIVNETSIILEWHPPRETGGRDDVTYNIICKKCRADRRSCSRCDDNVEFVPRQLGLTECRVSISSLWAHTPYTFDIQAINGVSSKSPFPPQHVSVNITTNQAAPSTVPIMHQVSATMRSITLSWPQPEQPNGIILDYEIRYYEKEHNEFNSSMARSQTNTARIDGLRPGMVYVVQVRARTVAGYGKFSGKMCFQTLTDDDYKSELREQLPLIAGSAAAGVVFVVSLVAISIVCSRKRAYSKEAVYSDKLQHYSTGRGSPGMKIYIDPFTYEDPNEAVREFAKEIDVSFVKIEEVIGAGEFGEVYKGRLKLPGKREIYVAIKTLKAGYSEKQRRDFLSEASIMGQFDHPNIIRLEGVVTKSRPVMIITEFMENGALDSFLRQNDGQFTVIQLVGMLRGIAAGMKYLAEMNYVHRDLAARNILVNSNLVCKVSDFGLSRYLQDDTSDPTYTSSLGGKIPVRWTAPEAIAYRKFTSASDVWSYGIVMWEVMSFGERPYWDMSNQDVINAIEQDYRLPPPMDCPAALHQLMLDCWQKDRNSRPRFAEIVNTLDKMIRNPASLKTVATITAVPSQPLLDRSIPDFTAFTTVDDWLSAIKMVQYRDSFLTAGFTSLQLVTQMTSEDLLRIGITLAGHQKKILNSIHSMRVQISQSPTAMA
Experimental: as §1, §2

ERN1 = biological target: T7, ERN1 (Homo sapiens, UniProt O75460); test: KINOMEscan binding assay; conditions: read-out: % Retention on Solid Support
T7 construct: purchased DiscoveRx KINOMEscan
Experimental: as §1, §2

KIT = biological target: T8, KIT (Homo sapiens, UniProt P10721); test: KINOMEscan binding assay; conditions: read-out: % Retention on Solid Support
T8 construct: purchased DiscoveRx KINOMEscan
Experimental: as §1, §2

LKB1 = biological target: T9, LKB1 (Homo sapiens, UniProt Q15831); test: KINOMEscan binding assay; conditions: read-out: % Retention on Solid Support
T9 construct: purchased DiscoveRx KINOMEscan
Experimental: as §1, §2

MELK = biological target: T10, MELK (Homo sapiens, UniProt Q14680); test: KINOMEscan binding assay; conditions: read-out: % Retention on Solid Support
T10 construct: purchased DiscoveRx KINOMEscan
Experimental: as §1, §2

MKNK2 = biological target: T11, MKNK2 (Homo sapiens, UniProt Q9HBH9); test: KINOMEscan binding assay; conditions: read-out: % Retention on Solid Support
T11 construct: purchased DiscoveRx KINOMEscan
Experimental: as §1, §2

MLCK = biological target: T12, MLCK (Homo sapiens, UniProt Q32MK0); test: KINOMEscan binding assay; conditions: read-out: % Retention on Solid Support
T12 construct: purchased DiscoveRx KINOMEscan
Experimental: as §1, §2

MYLK2 = biological target: T13, MYLK2 (Homo sapiens, UniProt Q9H1R3); test: KINOMEscan binding assay; conditions: read-out: % Retention on Solid Support
T13 construct: purchased DiscoveRx KINOMEscan
T13 sequence (Q9H1R3 whole entry): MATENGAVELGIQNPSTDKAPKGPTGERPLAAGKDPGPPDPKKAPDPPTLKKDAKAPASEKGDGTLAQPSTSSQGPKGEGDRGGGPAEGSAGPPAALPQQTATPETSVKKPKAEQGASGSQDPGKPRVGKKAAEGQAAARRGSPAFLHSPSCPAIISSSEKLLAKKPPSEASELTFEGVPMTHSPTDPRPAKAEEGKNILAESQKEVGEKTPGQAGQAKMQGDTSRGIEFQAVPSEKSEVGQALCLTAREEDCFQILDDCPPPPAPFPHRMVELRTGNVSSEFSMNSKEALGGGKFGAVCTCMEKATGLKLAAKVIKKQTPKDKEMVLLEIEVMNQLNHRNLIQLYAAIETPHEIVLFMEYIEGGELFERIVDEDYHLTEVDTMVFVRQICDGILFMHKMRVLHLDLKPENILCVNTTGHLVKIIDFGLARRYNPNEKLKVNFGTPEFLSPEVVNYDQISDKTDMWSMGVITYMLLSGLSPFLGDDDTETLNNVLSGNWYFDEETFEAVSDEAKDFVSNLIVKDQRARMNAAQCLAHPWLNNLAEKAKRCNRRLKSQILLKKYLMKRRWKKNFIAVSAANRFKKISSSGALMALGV
Experimental: as §1, §2

PAK7 = biological target: T14, PAK7 (Homo sapiens, UniProt Q9P286); test: KINOMEscan binding assay; conditions: read-out: % Retention on Solid Support
T14 construct: purchased DiscoveRx KINOMEscan
T14 sequence (Q9P286 whole entry): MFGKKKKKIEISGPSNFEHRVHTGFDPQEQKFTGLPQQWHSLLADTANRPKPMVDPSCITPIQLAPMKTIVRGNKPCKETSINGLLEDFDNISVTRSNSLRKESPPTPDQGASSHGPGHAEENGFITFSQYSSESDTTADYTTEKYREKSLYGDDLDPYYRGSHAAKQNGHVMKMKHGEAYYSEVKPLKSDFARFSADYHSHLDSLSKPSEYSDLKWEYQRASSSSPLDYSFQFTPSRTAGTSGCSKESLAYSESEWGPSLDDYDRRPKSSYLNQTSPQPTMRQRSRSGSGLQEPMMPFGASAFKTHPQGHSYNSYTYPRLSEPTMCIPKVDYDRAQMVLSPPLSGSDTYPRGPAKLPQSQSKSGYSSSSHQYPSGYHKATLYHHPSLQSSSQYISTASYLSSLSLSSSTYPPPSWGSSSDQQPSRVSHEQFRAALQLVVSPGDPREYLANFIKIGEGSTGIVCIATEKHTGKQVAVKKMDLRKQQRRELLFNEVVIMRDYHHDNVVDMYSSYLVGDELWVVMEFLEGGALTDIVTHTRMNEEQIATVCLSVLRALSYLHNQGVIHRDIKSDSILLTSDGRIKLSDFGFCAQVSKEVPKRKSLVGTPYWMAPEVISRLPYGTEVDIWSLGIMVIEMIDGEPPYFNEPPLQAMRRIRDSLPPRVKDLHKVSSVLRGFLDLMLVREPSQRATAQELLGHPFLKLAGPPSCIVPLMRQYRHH
Experimental: as §1, §2

RET = biological target: T15, RET (Homo sapiens, UniProt P07949); test: KINOMEscan binding assay; conditions: read-out: % Retention on Solid Support
T15 construct: purchased DiscoveRx KINOMEscan
T15 sequence (P07949 29-1114): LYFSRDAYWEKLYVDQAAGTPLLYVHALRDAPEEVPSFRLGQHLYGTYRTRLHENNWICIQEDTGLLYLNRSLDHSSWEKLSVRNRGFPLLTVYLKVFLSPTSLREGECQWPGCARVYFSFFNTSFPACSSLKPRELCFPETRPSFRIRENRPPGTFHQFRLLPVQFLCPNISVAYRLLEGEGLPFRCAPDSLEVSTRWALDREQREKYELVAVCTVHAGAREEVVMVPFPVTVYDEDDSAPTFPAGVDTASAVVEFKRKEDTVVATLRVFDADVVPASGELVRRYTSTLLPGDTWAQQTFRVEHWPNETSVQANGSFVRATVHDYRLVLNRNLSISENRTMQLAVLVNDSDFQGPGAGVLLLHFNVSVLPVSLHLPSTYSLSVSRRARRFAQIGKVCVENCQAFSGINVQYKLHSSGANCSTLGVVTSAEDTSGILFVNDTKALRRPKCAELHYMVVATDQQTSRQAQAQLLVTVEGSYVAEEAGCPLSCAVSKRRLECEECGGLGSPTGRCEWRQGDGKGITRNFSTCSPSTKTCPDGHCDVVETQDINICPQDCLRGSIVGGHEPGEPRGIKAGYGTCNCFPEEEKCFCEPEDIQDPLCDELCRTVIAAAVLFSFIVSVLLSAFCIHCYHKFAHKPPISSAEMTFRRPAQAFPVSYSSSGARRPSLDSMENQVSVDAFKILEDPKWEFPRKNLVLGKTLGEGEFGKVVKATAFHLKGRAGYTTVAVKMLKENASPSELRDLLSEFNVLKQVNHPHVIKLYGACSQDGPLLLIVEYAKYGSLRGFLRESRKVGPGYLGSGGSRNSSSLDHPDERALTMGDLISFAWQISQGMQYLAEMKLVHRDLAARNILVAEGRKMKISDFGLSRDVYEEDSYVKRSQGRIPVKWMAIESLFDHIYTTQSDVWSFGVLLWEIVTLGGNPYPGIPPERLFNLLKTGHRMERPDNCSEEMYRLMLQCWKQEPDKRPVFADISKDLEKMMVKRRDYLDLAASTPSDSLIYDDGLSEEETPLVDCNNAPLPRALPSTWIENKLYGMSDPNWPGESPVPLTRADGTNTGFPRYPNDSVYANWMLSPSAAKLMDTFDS
Experimental: as §1, §2

RIPK1 = biological target: T16, RIPK1 (Homo sapiens, UniProt Q13546); test: KINOMEscan binding assay; conditions: read-out: % Retention on Solid Support
T16 construct: purchased DiscoveRx KINOMEscan
Experimental: as §1, §2

TRKB = biological target: T17, TRKB (Homo sapiens, UniProt Q16620); test: KINOMEscan binding assay; conditions: read-out: % Retention on Solid Support
T17 construct: purchased DiscoveRx KINOMEscan
Experimental: as §1, §2

TSSK1B = biological target: T18, TSSK1B (Homo sapiens, UniProt Q9BXA7); test: KINOMEscan binding assay; conditions: read-out: % Retention on Solid Support
T18 construct: purchased DiscoveRx KINOMEscan
Experimental: as §1, §2

[2] = biological target: T19, TYK2(JH2domain-pseudokinase) (Homo sapiens, UniProt P29597); test: KINOMEscan binding assay
T19 construct: TYK2(JH2domain-pseudokinase); purchased DiscoveRx KINOMEscan
Experimental: as §1, §2

CDK8-CycC = CDK8-CycC (Homo sapiens, UniProt P49336); test: AlphaScreen-based kinase assay; type: biochemical
AXL = biological target: T20, AXL (Homo sapiens, UniProt P30530); test: biochemical binding or enzymatic assay; conditions: Novartis
T20 construct: purchased DiscoveRx KINOMEscan
Procedure, shortened: (§3)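 We re-examined selected kinases, originally profiled by KINOMEscan, for dose-dependent effects of i-CDK9 using activity-based or binding-based assays.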

PIM2 = biological target: T21, PIM2 (Homo sapiens, UniProt Q9P1W9); test: biochemical binding or enzymatic assay; conditions: Novartis
T21 construct: purchased DiscoveRx KINOMEscan
Procedure, shortened: as §3

CDK9 = CDK9 (Homo sapiens, UniProt P50750); test: KINOMEscan binding assay; parameters: purchased DiscoveRx KINOMEscan; conditions: read-out: % Retention on Solid Support
Experimental: as §1, §2

[3] = biological target: JAK1(JH1domain-catalytic) (Homo sapiens, UniProt P23458); test: KINOMEscan binding assay; parameters: JAK1(JH1domain-catalytic); purchased DiscoveRx KINOMEscan
Sequence of JAK1(JH1domain-catalytic) (P23458 854-1154 limits assumed): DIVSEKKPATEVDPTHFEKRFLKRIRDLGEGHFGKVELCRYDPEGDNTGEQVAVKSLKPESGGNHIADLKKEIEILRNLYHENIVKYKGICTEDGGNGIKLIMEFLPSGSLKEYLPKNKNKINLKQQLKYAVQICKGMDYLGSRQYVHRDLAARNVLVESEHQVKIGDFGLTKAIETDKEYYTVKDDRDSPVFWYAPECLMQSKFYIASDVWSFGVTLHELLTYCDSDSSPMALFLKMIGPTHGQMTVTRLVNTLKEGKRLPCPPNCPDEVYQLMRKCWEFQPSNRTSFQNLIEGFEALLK
Experimental: as §1, §2

[4] = biological target: JAK2(JH1domain-catalytic) (Homo sapiens, UniProt O60674); test: KINOMEscan binding assay; parameters: JAK2(JH1domain-catalytic); purchased DiscoveRx KINOMEscan
Experimental: as §1, §2

CDK9-CycT1 = CDK9-CycT1 (Homo sapiens, UniProt P50750); test: In vitro kinase reaction with baculovirus-produced recombinant kinase (SignalChem); type: biochemical; parameters: purchased SignalChem; host or cells: baculovirus-produced; conditions: 80 nM i-CDK9

## N[C@H]1CC[C@H](Nc2cc(-c3cccc(NCc4cccc(F)c4)n3)c(Cl)cn2)CC1 [i-CDK9, N2′-(trans-4-aminocyclohexyl)-5′-chloro-N6-(3-fluorobenzyl)-2,4′-bipyridine-2′,6-diamine]
[1]
  remaining binding at 1 µM: 100%
ABL1-phosphorylated
  remaining binding at 1 µM: 67%
ASK2; 1 µM i-CDK9
  remaining binding at 1 µM: 100%
ASK2; 10 µM i-CDK9
  remaining binding at 10 µM: 92%
CAMK2B; 1 µM i-CDK9
  remaining binding at 1 µM: 100%
CAMK2B; 10 µM i-CDK9
  remaining binding at 10 µM: 81%
CDKL3; 1 µM i-CDK9
  remaining binding at 1 µM: 44%
CDKL3; 10 µM i-CDK9
  remaining binding at 10 µM: 23%
EPHB1; 1 µM i-CDK9
  remaining binding at 1 µM: 100%
EPHB1; 10 µM i-CDK9
  remaining binding at 10 µM: 100%
ERN1; 1 µM i-CDK9
  remaining binding at 1 µM: 100%
ERN1; 10 µM i-CDK9
  remaining binding at 10 µM: 62%
KIT; 1 µM i-CDK9
  remaining binding at 1 µM: 91%
KIT; 10 µM i-CDK9
  remaining binding at 10 µM: 100%
LKB1; 1 µM i-CDK9
  remaining binding at 1 µM: 93%
LKB1; 10 µM i-CDK9
  remaining binding at 10 µM: 96%
MELK; 1 µM i-CDK9
  remaining binding at 1 µM: 100%
MELK; 10 µM i-CDK9
  remaining binding at 10 µM: 95%
MKNK2; 1 µM i-CDK9
  remaining binding at 1 µM: 100%
MKNK2; 10 µM i-CDK9
  remaining binding at 10 µM: 99%
MLCK; 1 µM i-CDK9
  remaining binding at 1 µM: 100%
MLCK; 10 µM i-CDK9
  remaining binding at 10 µM: 90%
MYLK2; 1 µM i-CDK9
  remaining binding at 1 µM: 100%
MYLK2; 10 µM i-CDK9
  remaining binding at 10 µM: 88%
PAK7; 1 µM i-CDK9
  remaining binding at 1 µM: 75%
PAK7; 10 µM i-CDK9
  remaining binding at 10 µM: 81%
RET; 1 µM i-CDK9
  remaining binding at 1 µM: 100%
RET; 10 µM i-CDK9
  remaining binding at 10 µM: 100%
RIPK1; 1 µM i-CDK9
  remaining binding at 1 µM: 100%
RIPK1; 10 µM i-CDK9
  remaining binding at 10 µM: 100%
TRKB; 1 µM i-CDK9
  remaining binding at 1 µM: 100%
TRKB; 10 µM i-CDK9
  remaining binding at 10 µM: 100%
TSSK1B; 1 µM i-CDK9
  remaining binding at 1 µM: 99%
TSSK1B; 10 µM i-CDK9
  remaining binding at 10 µM: 68%
[2]; 1 µM i-CDK9
  % Retention on Solid Support: 100%
[2]; 10 µM i-CDK9
  % Retention on Solid Support: 86%
CDK8-CycC
  pIC50: < 6.00
AXL
  pIC50: < 5.00
PIM2
  pIC50: < 5.00
CDK9; 1 µM i-CDK9
  remaining binding at 1 µM: 5.1%
CDK9; 10 µM i-CDK9
  remaining binding at 10 µM: 0%
[3]; 1 µM i-CDK9
  % Retention on Solid Support: 100%
[3]; 10 µM i-CDK9
  % Retention on Solid Support: 100%
[4]; 1 µM i-CDK9
  % Retention on Solid Support: 76%
[4]; 10 µM i-CDK9
  % Retention on Solid Support: 84%
CDK9-CycT1
  inhibition of Ser2 phosphorylation: mostly inhibited
